IC50 data for 1 compound are collected here from ChEMBL document CHEMBL3638637, “Imidazo[1,2-Œ±]pyridine sulfonamides as TRPM8 modulators” (2015).

The target of the assay is Transient receptor potential M8 protein (Canis lupus familiaris, UniProt Q1A7N1). Put plainly: FLIPR Assay: The functional activity of compounds of the formula (I) was determined by measuring changes in intracellular calcium concentration using a Ca2+-sensitive fluorescent dye. The changes in fluorescent signal were monitored by a fluorescence plate reader, either a FLIPR (Molecular Devices) or FDSS (Hamamatsu). Increases in intracellular Ca2+ concentration were readily detected upon activation with icilin.At 24 hrs prior to assay, HEK293 cells stably expressing canine TRPM8 were seeded in culture medium in black wall, clear-base poly-D-lysine coated 384-well plates (BD Biosciences, NJ, USA) and grown overnight in 5% CO2 at 37° C. On assay day, growth media was removed and cells were loaded with Calcium 3 Dye (Molecular Devices) for 35 min at 37° C., under 5% CO2 and then for 25 min at room temperature and atmosphere. The assay is classed as cell-based. A general note: Calcium flux is commonly read through the fluorescence of an indicator in the cells.
Sequence of Transient receptor potential M8 protein (Q1A7N1 whole entry): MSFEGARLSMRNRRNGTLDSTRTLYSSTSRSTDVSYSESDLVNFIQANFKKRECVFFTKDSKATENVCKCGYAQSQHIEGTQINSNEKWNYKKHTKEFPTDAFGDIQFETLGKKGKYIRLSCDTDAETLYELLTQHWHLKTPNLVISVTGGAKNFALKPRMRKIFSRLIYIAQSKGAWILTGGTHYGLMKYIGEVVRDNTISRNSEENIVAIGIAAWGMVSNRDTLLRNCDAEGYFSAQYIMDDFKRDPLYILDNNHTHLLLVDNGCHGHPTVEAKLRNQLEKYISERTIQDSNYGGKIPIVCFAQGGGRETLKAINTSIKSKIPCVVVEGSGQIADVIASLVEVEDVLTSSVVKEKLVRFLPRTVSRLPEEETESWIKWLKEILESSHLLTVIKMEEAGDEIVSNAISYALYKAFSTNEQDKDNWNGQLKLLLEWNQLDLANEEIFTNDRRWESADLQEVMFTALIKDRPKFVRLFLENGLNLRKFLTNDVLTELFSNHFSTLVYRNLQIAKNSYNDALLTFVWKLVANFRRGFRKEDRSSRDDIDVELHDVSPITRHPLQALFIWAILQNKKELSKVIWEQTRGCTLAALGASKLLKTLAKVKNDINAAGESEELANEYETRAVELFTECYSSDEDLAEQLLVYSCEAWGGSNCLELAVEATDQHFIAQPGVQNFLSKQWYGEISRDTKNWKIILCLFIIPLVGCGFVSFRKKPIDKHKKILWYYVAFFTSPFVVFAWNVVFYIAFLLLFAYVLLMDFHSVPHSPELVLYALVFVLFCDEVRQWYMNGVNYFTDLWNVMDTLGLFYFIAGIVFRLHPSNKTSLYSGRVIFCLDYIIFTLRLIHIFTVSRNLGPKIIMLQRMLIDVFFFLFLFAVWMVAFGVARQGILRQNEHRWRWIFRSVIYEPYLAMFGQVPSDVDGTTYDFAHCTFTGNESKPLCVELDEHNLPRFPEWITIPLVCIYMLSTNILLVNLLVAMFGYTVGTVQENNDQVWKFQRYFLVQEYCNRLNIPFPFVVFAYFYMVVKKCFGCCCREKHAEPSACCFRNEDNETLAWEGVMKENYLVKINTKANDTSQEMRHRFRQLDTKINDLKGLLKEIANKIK

A word on the IC50: it is the point on the concentration scale where inhibition reaches its midpoint. With `Cc1c(N(Cc2ccc(F)c(C(F)(F)F)c2)S(=O)(=O)c2ccc(C(=O)O)cc2)nc2ccc(Cl)cn12`, the half-inhibitory concentration (IC50) turned out to be 34.9 nM.
